According to ChEMBL document CHEMBL1132872, “Synthesis of a potent aminocyclitol alpha-mannosidase inhibitor, 1L-(1,2,3,5/4)-5-amino-4-O-methyl-1,2,3,4-cyclopentanetetrol” (Bioorg Med Chem Lett, 2000):
pIC50: −log10 of the molar value.

Tests used:
Parameters in all cases: species or system Canavalia ensiformis
[1] = Inhibitory activity against Alpha-mannosidase (Jack bean)
[2] = Inhibitory activity against Alpha-mannosidase (Jack bean); No inhibition
[3] = Compound (at <10 e -3M) was tested for inhibition of Alpha-mannosidase (jack bean); No inhibition

Row | SMILES | pIC50 [1] | also measured
1 | CO[C@@H]1[C@@H](N)[C@@H](O)[C@@H](O)[C@H]1O | 6.80 | –
2 | CO[C@@H]1[C@@H](N)[C@@H](OC)[C@@H](O)[C@H]1O | – | IC50 [2]: Not Active
3 | CO[C@H]1[C@@H](N)[C@@H](O)[C@@H](O)[C@H]1O | – | IC50 [3]: Not Active
4 | CS[C@@H]1[C@@H](N)[C@@H](O)[C@@H](O)[C@H]1O [MANNOSTATIN A] | 6.46 | –

More lines, main results first:

Row | pIC50 [1] | SMILES | also measured
5 | 4.96 | N[C@@H]1C[C@H](O)[C@H](O)[C@@H]1O | –
6 | 4.44 | N[C@H]1[C@@H](O)[C@@H](O)[C@@H](O)[C@@H]1S | –
7 | 5.30 | CCS[C@@H]1[C@@H](N)[C@@H](O)[C@@H](O)[C@H]1O | –
